# Measurements taken from ChEMBL document CHEMBL5126621, “Modifying a Hydroxyl Patch in Glucagon-like Peptide 1 Produces Biased Agonists with Unique Signaling Profiles” (J Med Chem, 2022).
# Active and inactive are the calls of the source. The rule behind the calls is not given here. Where a SMILES comes first, the peptide text is derived from it. [ ]: non-standard residue; d: D form. Abu = CC[C@H](N)C(=O)O
# Key:
# [1] = biological target: T1, Glucagon-like peptide 1 receptor (Homo sapiens, UniProt P43220)
# Description: Agonist activity at human GLP-1R expressed in CHO cells coexpressing beta-arrestin-2 assessed as stimulation intracellular calcium mobilization measured after 180 secs by Fluo-3-AM dye based fluorescence assay
# [2] = biological target: T1, Glucagon-like peptide 1 receptor; remark: listed apart in the source
# Description: Agonist activity at human GLP-1R assessed as increase in ERK1/2 phosphorylation at Thr202/Tyr204 residues incubated for 20 mins by AlphaLISA assay
# [3] = biological target: T1, Glucagon-like peptide 1 receptor; remark: listed apart in the source
# Description: Agonist activity at human GLP-1R expressed in CHO cells coexpressing beta-arrestin-2 assessed as reduction in cAMP accumulation incubated for 2 hrs under dark condition by LANCE cAMP assay
# [4] = biological target: T1, Glucagon-like peptide 1 receptor; remark: listed apart in the source
# Description: Agonist activity at human GLP-1R expressed in CHO cells coexpressing beta-arrestin-2 assessed as increase in beta arrestin-2 recruitment incubated for 1 hr by chemiluminescence based pathHunter assay
# [5] = biological target: T1, Glucagon-like peptide 1 receptor; remark: listed apart in the source
# Mus musculus [6] = experiment: Reduction in blood glucose level in intraperitoneal glucose injected C57BL/6J mouse at 0.1 mg/kg, ip administered as single dose measured 20 to 60 mins by glucose tolerance test; type: functional, organism-based; settings: time 20-60 min
# INS1 = experiment: Induction of glucose-stimulated insulin secretion in rat INS1 cells measured after 1 to 16 hrs by HTRF assay; type: functional, cell-based; settings: dose 10-1e+07 pM, time lower 1.0 hrs, time upper […], DDE = dose-dependent effect
# [7] = Drug uptake in human GLP-1R expressed in CHO cells coexpressing GFP assessed as drug internalization at 100 nM incubated for 30 mins by inverted microscopic analysis; type: ADME, cell-based, Cricetulus griseus; settings: chinese hamster, 0.5 h, 0.1 µM
# [8] = biological target: T1, Glucagon-like peptide 1 receptor; experiment: Receptor residence time at human GLP-1R expressed in CHO cells coexpressing beta-arrestin-2 assessed as inhibition of glucagon-like peptide 1-induced calcium mobilization by measuring half life at 100 uM preincubated for 30 mins followed by glucagon-like peptide 1 addition measured upto 4 hrs by calcium mobilization assay; type: functional, cell-based; settings: filed as agonist
# [9] = biological target: T1, Glucagon-like peptide 1 receptor; experiment: Binding affinity to human GLP-1R expressed in CHO cells coexpressing beta-arrestin-2 assessed as fold increase in affinity incubated for 1 hr in presence of N-(tert-butyl)-6,7-dichloro-3-(methylsulfonyl)quinoxalin-2-amine by time-resolved fluorescence assay; type: cell-based
# Mus musculus [10] = experiment: Reduction in blood glucose level in intraperitoneal glucose injected C57BL/6J mouse by measuring glucose area under curve at 0.1 mg/kg, ip administered as single dose measured in 90 mins by glucose tolerance test; type: functional, organism-based
# Mus musculus [11] = experiment: Induction of plasma insulin level in C57BL/6J mouse assessed as increase in insulin level at 0.1 mg/kg, ip administered as single dose measured at 10 mins in presence of glucose; type: functional, organism-based
# [12] = biological target: T1, Glucagon-like peptide 1 receptor; experiment: Agonist activity at human GLP-1R expressed in CHO cells coexpressing GFP assessed as receptor internalization at 10 uM by confocal fluorescence microscopy; type: functional, cell-based; settings: filed as agonist
# [13] = biological target: T1, Glucagon-like peptide 1 receptor; experiment: Agonist activity at human GLP-1R expressed in CHO cells coexpressing GFP assessed as increase in glucagon-like peptide 1-induced receptor internalization at 10 uM by confocal fluorescence microscopy; type: functional, cell-based; settings: filed as agonist, time 30.0 min
# T1 sequence (P43220 whole entry): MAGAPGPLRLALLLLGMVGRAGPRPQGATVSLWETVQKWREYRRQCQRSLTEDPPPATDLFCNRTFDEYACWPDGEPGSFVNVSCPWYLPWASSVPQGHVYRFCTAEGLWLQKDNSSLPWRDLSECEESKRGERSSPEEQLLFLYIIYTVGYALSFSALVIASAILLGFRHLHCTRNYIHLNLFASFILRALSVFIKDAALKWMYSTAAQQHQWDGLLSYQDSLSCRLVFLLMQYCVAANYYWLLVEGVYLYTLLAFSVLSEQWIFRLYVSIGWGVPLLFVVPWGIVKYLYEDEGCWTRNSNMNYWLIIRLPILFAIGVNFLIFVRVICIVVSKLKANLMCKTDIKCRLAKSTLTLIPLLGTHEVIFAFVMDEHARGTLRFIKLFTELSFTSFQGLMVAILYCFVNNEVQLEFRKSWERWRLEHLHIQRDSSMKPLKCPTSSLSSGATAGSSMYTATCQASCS
EC50 [1],EC50 [2],EC50 [3],EC50 [4],IC50 [5],Drug uptake [7],T1/2 [8],fold change (FC) [9],Activity [12],Activity [13],Compound,Activity (Mus musculus [6]),Activity (INS1),Activity (Mus musculus [10]),Activity (Mus musculus [11])
> 100000 nM,> 10000 nM,5.01 nM,> 10000 nM,398 nM,–,–,–,–,–,CC[C@H](NC(=O)[C@H](CC)NC(=O)[C@@H](NC(=O)[C@H](CC(=O)O)NC(=O)[C@H](CC)NC(=O)[C@@H](NC(=O)[C@H](Cc1ccccc1)NC(=O)[C@@H](NC(=O)CNC(=O)[C@H](CCC(=O)O)NC(=O)[C@H](C)NC(=O)[C@@H](N)Cc1c[nH]cn1)C(C)C)[C@@H](C)O)C(C)C)C(=O)N[C@@H](Cc1ccc(O)cc1)C(=O)N[C@@H](CC(C)C)C(=O)N[C@@H](CCC(=O)O)C(=O)NCC(=O)N[C@@H](CCC(N)=O)C(=O)N[C@@H](C)C(=O)N[C@@H](C)C(=O)N[C@@H](CCCCN)C(=O)N[C@@H](CCC(=O)O)C(=O)N[C@@H](Cc1ccccc1)C(=O)N[C@H](C(=O)N[C@@H](C)C(=O)N[C@@H](Cc1c[nH]c2ccccc12)C(=O)N[C@@H](CC(C)C)C(=O)N[C@H](C(=O)N[C@@H](CCCCN)C(=O)NCC(=O)N[C@@H](CCCNC(=N)N)C(N)=O)C(C)C)[C@@H](C)CC (H-HAEGVFT[Abu]DV[Abu][Abu]YLEGQAAKEFIAWLVKGR-NH2),–,–,–,–
> 100000 nM,> 100000 nM,0.0398 nM,> 10000 nM,251 nM,Active,4 h,10,–,–,H-HAEGAFTADVAAYLEGQAAKEFIAWLVKGR-NH2,Active,Dde,Active,Active
–,–,–,–,–,–,–,–,Active,Active,CC(C)(C)Nc1nc2cc(Cl)c(Cl)cc2nc1S(C)(=O)=O,–,–,–,–
794 nM,> 10000 nM,0.00501 nM,158 nM,251 nM,Active,–,–,–,–,H-HAEGTFTADVAAYLEGQAAKEFIAWLVKGR-NH2,Active,–,Active,Active
–,–,–,–,–,–,–,–,Active,Active,CC[S+]([O-])c1nc(-c2cccc(OCc3ccccc3)c2)cc(C(F)(F)F)n1 (stereo unspecified),–,–,–,–

Compound,EC50 [1],EC50 [2],EC50 [3],EC50 [4],IC50 [5],Drug uptake [7],T1/2 [8],fold change (FC) [9],Activity [12],Activity [13],Activity (Mus musculus [6]),Activity (INS1),Activity (Mus musculus [10]),Activity (Mus musculus [11])
CC[C@H](C)[C@H](NC(=O)[C@H](Cc1ccccc1)NC(=O)[C@H](CCC(=O)O)NC(=O)[C@H](CCCCN)NC(=O)[C@H](C)NC(=O)[C@H](C)NC(=O)[C@H](CCC(N)=O)NC(=O)CNC(=O)[C@H](CCC(=O)O)NC(=O)[C@H](CC(C)C)NC(=O)[C@H](Cc1ccc(O)cc1)NC(=O)[C@H](CO)NC(=O)[C@H](CO)NC(=O)[C@@H](NC(=O)[C@H](CC(=O)O)NC(=O)[C@H](CO)NC(=O)[C@@H](NC(=O)[C@H](Cc1ccccc1)NC(=O)[C@@H](NC(=O)CNC(=O)[C@H](CCC(=O)O)NC(=O)[C@H](C)NC(=O)[C@@H](N)Cc1c[nH]cn1)[C@@H](C)O)[C@@H](C)O)C(C)C)C(=O)N[C@@H](C)C(=O)N[C@@H](Cc1c[nH]c2ccccc12)C(=O)N[C@@H](CC(C)C)C(=O)N[C@H](C(=O)N[C@@H](CCCCN)C(=O)NCC(=O)N[C@@H](CCCNC(=N)N)C(N)=O)C(C)C,–,–,–,–,–,Active,–,–,–,–,–,–,–,–
